Data published in patent US12029739B2, “SHP2 inhibitor and use thereof” (KANAPH THERAPEUTICS INC., priority 2021, dated 2024).
Where two headings read alike, the source gives them in different places.

Tests used:
[1] = test system: phospho-ERK in MIA PaCa2 or H358 cells; assay: Phospho-ERK assay (AlphaLisa); assay type: cell-based; settings: MIA PaCa2 or H358 cells, compound incubated 1.5 hours, read-out: IC50 (p-ERK)
[2] = target: T1, SHP2 (full length) (Homo sapiens, UniProt Q06124); assay: Phosphatase assay (PTPase assay) with DiFMUP substrate; assay type: biochemical; settings: SHP2 activated with SHP2 activating peptide; DiFMUP 80 μM, 2 hours; fluorescence; read-out: IC50 (PTPase aS say)
T1 construct: SHP2 (full length, diluted to 100 pM final concentration in reaction buffer, BPS bioscience, US); purchased BPS bioscience, US
T1 sequence (Q06124 1-593): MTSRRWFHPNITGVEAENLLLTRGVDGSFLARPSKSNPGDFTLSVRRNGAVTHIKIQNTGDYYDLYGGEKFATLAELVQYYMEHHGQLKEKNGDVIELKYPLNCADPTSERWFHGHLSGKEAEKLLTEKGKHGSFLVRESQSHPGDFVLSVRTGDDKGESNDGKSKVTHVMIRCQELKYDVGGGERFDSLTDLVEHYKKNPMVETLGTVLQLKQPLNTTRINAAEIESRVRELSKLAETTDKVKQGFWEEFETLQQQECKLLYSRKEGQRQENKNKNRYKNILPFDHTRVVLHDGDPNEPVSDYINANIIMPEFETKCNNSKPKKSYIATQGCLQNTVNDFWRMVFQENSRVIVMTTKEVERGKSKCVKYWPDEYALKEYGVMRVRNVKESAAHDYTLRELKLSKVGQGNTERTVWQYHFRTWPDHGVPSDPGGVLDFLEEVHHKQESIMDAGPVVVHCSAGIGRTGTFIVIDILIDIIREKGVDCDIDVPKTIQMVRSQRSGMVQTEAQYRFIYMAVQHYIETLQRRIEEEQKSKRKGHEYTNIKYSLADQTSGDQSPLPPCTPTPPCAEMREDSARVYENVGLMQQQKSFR

Row | IC50 ([1]; 1.5 h) [nM] | IC50 [2] [nM] | SMILES | IC50 [1] [nM]
1 | 45 to 1500 | 3 to 100 | COCCn1cnc2ccc(Sc3ncc(N4CCC5(CC4)Cc4ncccc4[C@H]5N)nc3N)c(Cl)c2c1=O [Example 134] | –
2 | < 45 | < 3 | CC(=O)Cn1cnc2ccc(Sc3cnc(N4CCC5(CC4)CO[C@@H](C)[C@H]5N)cn3)c(Cl)c2c1=O [Example 92, 6-((5-((3S,4S)-4-amino-3-methyl-2-oxa-8-azaspiro[4.5]decan-8-yl)pyrazin-2-yl)thio)-5-chloro-3-(2-oxopropyl)quinazolin-4(3H)-one] | –
3 | < 45 | < 3 | N[C@@H]1c2cccnc2CC12CCN(c1cnc(Sc3ccc4ncn(CC5(F)COC5)c(=O)c4c3Cl)cn1)CC2 [Example 140, (S)-6-((5-(5-amino-5,7-dihydrospiro[yclopenta[b]pyridine-6,4′-piperidin]-1′-yl)pyrazin-2-yl)thio)-5-chloro-3-((3-fluorooxetan-3-yl)methyl)quinazolin-4(3H)-one] | –
4 | < 45 | < 3 | C[C@@H]1OCC2(CCN(c3cnc(Sc4ccc5ncn(CC6(F)CCOCC6)c(=O)c5c4Cl)cn3)CC2)[C@@H]1N [Example 79, 6-((5-((3S,4S)-4-amino-3-methyl-2-oxa-8-azaspiro[4.5]decan-8-yl)pyrazin-2-yl)thio)-5-chloro-3-((4-fluorotetrahydro-2H-pyran-4-yl)methyl)quinazolin-4(3H)-one] | –
5 | < 45 | < 3 | C[C@@H]1OCC2(CCN(c3cnc(Sc4ccc5nc(Oc6cccnc6)[nH]c5c4Cl)cn3)CC2)[C@@H]1N [Example 128] | –
6 | < 45 | 3 to 100 | C[C@@H]1OCC2(CCN(c3cnc(Sc4ccc5ncn(Cc6ccn(C)n6)c(=O)c5c4Cl)cn3)CC2)[C@@H]1N [Example 53, 6-((5-((3S,4S)-4-amino-3-methyl-2-oxa-8-azaspiro[4.5]decan-8-yl)pyrazin-2-yl)thio)-5-chloro-3-((1-methyl-1H-pyrazol-3-yl)methyl)quinazolin-4(3H)-one] | –
7 | < 45 | < 3 | COCCOc1nc2ccc(Sc3cnc(N4CCC5(CC4)CO[C@@H](C)[C@H]5N)cn3)c(Cl)c2[nH]1 [Example 127] | –
8 | < 45 | < 3 | C[C@@H]1OCC2(CCN(c3cnc(Sc4ccc5nn(C)cc5c4Cl)cn3)CC2)[C@@H]1N [Example 26, (3S,4S)-8-(5-((4-chloro-2-methyl-2H-indazol-5-yl)thio)pyrazin-2-yl)-3-methyl-2-oxa-8-azaspiro[4.5]decan-4-amine] | –
9 | < 45 | < 3 | COCCn1cnc2ccc(Sc3cnc(N4CCC5(CC4)Cc4scnc4[C@H]5N)c(C(N)=O)n3)c(Cl)c2c1=O [Example 172, (S)-3-(4-amino-4,6-dihydrospiro[cyclopenta[d]thiazole-5,4′-piperidin]-1′-yl)-6-((5-chloro-3-(2-methoxyethyl)-4-oxo-3,4-dihydroquinazolin-6-yl)thio)pyrazine-2-carboxamide] | –
10 | < 45 | < 3 | C[C@@H]1OCC2(CCN(c3cnc(Sc4ccc5ncn(CCCF)c(=O)c5c4Cl)cn3)CC2)[C@@H]1N [Example 77, 6-((5-((3S,4S)-4-amino-3-methyl-2-oxa-8-azaspiro[4.5]decan-8-yl)pyrazin-2-yl)thio)-5-chloro-3-(3-fluoropropyl)quinazolin-4(3H)-one] | –
11 | > 1500 | > 100 | Cn1c(N2CCOC(CN)C2)nc(N)c(Sc2cccc(Cl)c2Cl)c1=O (centres unmarked) [Example 198, 6-amino-2-(2-(aminomethyl)morpholino)-5-((2,3-dichlorophenyl)thio)-3-methylpyrimidin-4(3H)-one] | –
12 | > 1500 | > 100 | Cn1c(N2CCN(CC(N)Cc3cccnc3)CC2)nc(N)c(Sc2cccc(Cl)c2Cl)c1=O (centres unmarked) [Example 188, 6-amino-2-(4-(2-amino-3-(pyridin-3-yl)propyl)piperazin-1-yl)-5-((2,3-dichlorophenyl)thio)-3-methylpyrimidin-4(3H)-one] | –
13 | < 45 | < 3 | N[C@@H]1c2ccccc2CC12CCN(c1cnc(Sc3ccc4ncn(CC5CCOC5)c(=O)c4c3Cl)cn1)CC2 (stereo partly drawn) [Example 103, 6-((5-((S)-1-amino-1,3-dihydrospiro[indene-2,4′-piperidin]-1′-yl]pyrazin-2-yl]thio)-5-chloro-3-((tetrahydrofuran-3-yl)methyl)quinazolin-4(3H)-one] | –
14 | < 45 | < 3 | C[C@@H]1OCC2(CCN(c3cnc(Sc4ccc5nc(OC6CCOC6)n(C)c5c4Cl)cn3)CC2)[C@@H]1N (stereo partly drawn) [Example 129, (3S,4S)-8-(5-((7-chloro-1-methyl-2-((tetrahydrofuran-3-yl)oxy)-1H-benzo[d]imidazol-6-yl)thio)pyrazin-2-yl)-3-methyl-2-oxa-8-azaspiro[4.5]decan-4-amine] | –
15 | 45 to 1500 | 3 to 100 | C[C@@H]1OCC2(CCN(c3cnc(Sc4ccc5ncn(CCC(N)=O)c(=O)c5c4Cl)cn3)CC2)[C@@H]1N [Example 98, 3-(6-((5-((3S,4S)-4-amino-3-methyl-2-oxa-8-azaspiro[4.5]decan-8-yl)pyrazin-2-yl)thio)-5-chloro-4-oxoquinazolin-3(4H)-yl)propanamide] | –
16 | 45 to 1500 | 3 to 100 | C[C@@H]1OCC2(CCN(c3cnc(Sc4ccc5c(c4Cl)C(=O)N(Cc4ccccc4)C5)cn3)CC2)[C@@H]1N [Example 133, 6-((5-((3S,4S)-4-amino-3-methyl-2-oxa-8-azaspiro[4,5]decan-8-yl)-pyrazin-2-yl)thio)-2-benzyl-7-chloroisoindolin-1-one] | –
17 | > 1500 | > 100 | Cn1c(N2CCC(C)(N)CC2)nc(N)c(Sc2ccc3nc[nH]c(=O)c3c2Cl)c1=O [Example 29, 6-((4-amino-2-(4-amino-4-methylpiperidin-1-yl)-1-methyl-6-oxo-1,6-dihydropyrimidin-5-yl)thio)-5-chloroquinazolin-4(3H)-one] | –
18 | < 45 | < 3 | COc1ccc(Cn2cnc3ccc(Sc4cnc(N5CCC6(CC5)CO[C@@H](C)[C@H]6N)cn4)c(Cl)c3c2=O)cc1F [Example 73, 6-((5-((3S,4S)-4-amino-3-methyl-2-oxa-8-azaspiro[4.5]decan-8-yl)pyrazin-2-yl)thio)-5-chloro-3-(3-fluoro-4-methoxybenzyl)quinazolin-4(3H)-one] | –
19 | 45 to 1500 | 3 to 100 | C[C@@H]1OCC2(CCN(c3cnc(Sc4ccc5ncn(CC(O)CF)c(=O)c5c4Cl)cn3)CC2)[C@@H]1N (stereo partly drawn) [Example 76, 6-((5-((3S,4S)-4-amino-3-methyl-2-oxa-8-azaspiro[4.5]decan-8-yl)pyrazin-2-yl)thio)-5-chloro-3-(3-fluoro-2-hydroxypropyl)quinazolin-4(3H)-one] | –
20 | 45 to 1500 | 3 to 100 | COC(=O)c1cccc(Sc2cnc(N3CCC(C)(N)CC3)cn2)c1Cl [Example 1, methyl 3-((5-(4-amino-4-methylpiperidin-1-yl)pyrazin-2-yl)thio)-2-chlorobenzoate] | –
21 | < 45 | < 3 | COC(C)Cn1cnc2ccc(Sc3ncc(N4CCC5(CC4)Cc4scnc4[C@H]5N)nc3N)c(Cl)c2c1=O (some centres unmarked) [Example 177] | –
22 | > 1500 | > 100 | COc1cccc(Cc2nc3ccc(Sc4cnc(N5CCC6(CC5)CO[C@@H](C)[C@H]6N)cn4)c(Cl)c3[nH]2)c1 [Example 135] | –
23 | 45 to 1500 | 3 to 100 | C[C@@H]1OCC2(CCN(c3cnc(Sc4ccc5ncn(Cc6ccncc6)c(=O)c5c4Cl)cn3)CC2)[C@@H]1N [Example 39, 6-((5-((3S,4S)-4-amino-3-methyl-2-oxa-8-azaspiro[4.5]decan-8-yl)pyrazin-2-yl)thio)-5-chloro-3-(pyridin-4-ylmethyl)quinazolin-4(3H)-one] | –
24 | < 45 | < 3 | C[C@@H]1OCC2(CCN(c3cnc(Sc4ccc5ncn(CCN6CCOC6=O)c(=O)c5c4Cl)cn3)CC2)[C@@H]1N [Example 114] | –
25 | > 1500 | 3 to 100 | C[C@@H]1OCC2(CCN(c3cnc(Sc4ccc5c(c4Cl)C(=O)N(Cc4ccccc4)CC5)cn3)CC2)[C@@H]1N [Example 85, 7-((5-((3S,4S)-4-amino-3-methyl-2-oxa-8-azaspiro[4.5]decan-8-yl)pyrazin-2-yl)thio)-2-benzyl-8-chloro-3,4-dihydroisoquinolin-1(2H)-one] | –
26 | < 45 | < 3 | C[C@@H]1OCC2(CCN(c3cnc(Sc4ccc5ncn(Cc6nc7ccccc7[nH]6)c(=O)c5c4Cl)cn3)CC2)[C@@H]1N [Example 37, 3-((1H-benzo[d]imidazol-2-yl)methyl)-6-((5-((3S,4S)-4-amino-3-methyl-2-oxa-8-azaspiro[4.5]decan-8-yl)pyrazin-2-yl)thio)-5-chloroquinazolin-4(3H)-one] | –
27 | < 45 | < 3 | C[C@@H]1OCC2(CCN(c3cnc(Sc4ccc5ncn(CC6CNC(=O)O6)c(=O)c5c4Cl)cn3)CC2)[C@@H]1N (some centres unmarked) [Example 118] | –

Row | SMILES | IC50 ([1]; 1.5 h) [nM] | IC50 [2] [nM] | IC50 [1] [nM]
28 | COCCn1cnc2ccc(Sc3nc(CO)c(N4CCC5(CC4)CO[C@@H](C)[C@H]5N)nc3C)c(Cl)c2c1=O [Example 131] | – | 3 to 100 | 45 to 1500
